Data taken from paper PMC10041525, “New Dual Inhibitors of Bacterial Topoisomerases with Broad-Spectrum Antibacterial Activity and In Vivo Efficacy against Vancomycin-Intermediate Staphylococcus aureus” (Journal of Medicinal Chemistry, 2023).

System: 100 A. baumannii strains (50 MDR, 50 non-MDR)
Assay: MIC broth microdilution at IHMA Europe, panel of 100 strains
Format: cell-based

Substance: piperacillin/tazobactam [Piperacillin Tazobactam]
- MIC (A. baumannii IHMA 2193485, Venezuela 2020, Non-MDR): ≤0.25 µg/mL
- MIC (A. baumannii IHMA 2193607, Venezuela 2020, MDR): >128 µg/mL
- MIC (A. baumannii IHMA 2195460, Italy 2020, MDR): >128 µg/mL
- MIC (A. baumannii IHMA 2196914, South Africa 2020, MDR): >128 µg/mL
- MIC (A. baumannii IHMA 2196959, South Africa 2020, MDR): >128 µg/mL
- MIC (A. baumannii IHMA 2203763, Spain 2020, MDR): >128 µg/mL
- MIC (A. baumannii IHMA 2205144, Korea, South 2020, MDR): >128 µg/mL
- MIC (A. baumannii IHMA 2206459, Taiwan 2020, MDR): >128 µg/mL
- MIC (A. baumannii IHMA 2206507, Taiwan 2020, Non-MDR): ≤0.25 µg/mL
- MIC (A. baumannii IHMA 2212575, Hungary 2020, Non-MDR): 4 µg/mL
- MIC (A. baumannii IHMA 2215307, Hong Kong 2020, Non-MDR): 1 µg/mL
- MIC (A. baumannii IHMA 2216586, Taiwan 2020, MDR): >128 µg/mL
- MIC (A. baumannii IHMA 2223200, Colombia 2020, Non-MDR): ≤0.25 µg/mL
- MIC (A. baumannii IHMA 2224017, Panama 2020, MDR): >128 µg/mL
- MIC (A. baumannii IHMA 2224303, Panama 2020, Non-MDR): 16 µg/mL
- MIC (A. baumannii IHMA 2231797, Greece 2020, MDR): >128 µg/mL
- MIC (A. baumannii IHMA 2233099, Guatemala 2020, MDR): >128 µg/mL
- MIC (A. baumannii IHMA 2233430, Kazakhstan 2020, MDR): >128 µg/mL
- MIC (A. baumannii IHMA 2233548, Kazakhstan 2020, Non-MDR): ≤0.25 µg/mL
- MIC (A. baumannii IHMA 2238964, Thailand 2020, MDR): >128 µg/mL
- MIC (A. baumannii IHMA 2239052, Thailand 2020, Non-MDR): ≤0.25 µg/mL
- MIC (A. baumannii IHMA 2261047, Belgium 2020, MDR): >128 µg/mL
- MIC (A. baumannii IHMA 2261633, Canada 2020, Non-MDR): ≤0.25 µg/mL
- MIC (A. baumannii IHMA 2274234, South Africa 2020, MDR): >128 µg/mL
- MIC (A. baumannii IHMA 2274364, South Africa 2020, MDR): >128 µg/mL
- MIC (A. baumannii IHMA 2275237, Chile 2020, Non-MDR): ≤0.25 µg/mL
- MIC (A. baumannii IHMA 2275751, Jordan 2020, MDR): >128 µg/mL
- MIC (A. baumannii IHMA 2316205, United States 2020, MDR): >128 µg/mL
- MAX (maximum MIC; all strains inhibited) (MDR n = 50): >128 µg/mL
- MIC50 (MDR n = 50): >128 µg/mL
- MIC90 (MDR n = 50): >128 µg/mL
- MIN (minimum MIC) (MDR n = 50): >128 µg/mL
- Percentage I (MDR n = 50): 0%
- Percentage R (MDR n = 50): 100%
- Percentage S (MDR n = 50): 0%
- Cumulative % at MIC (MDR n=50, MIC >128 µg/mL): 100%
- No. of isolates at MIC (MDR n=50, MIC >128 µg/mL): 50
- MAX (maximum MIC; all strains inhibited) (all isolates n = 100): >128 µg/mL
- MIC50 (all isolates n = 100): 16 µg/mL
- MIC90 (all isolates n = 100): >128 µg/mL
- MIN (minimum MIC) (all isolates n = 100): ≤0.25 µg/mL
- Percentage I (all n = 100, CLSI breakpoints): 0%
- Percentage R (all n = 100, CLSI breakpoints): 50%
- Percentage S (all n = 100, CLSI breakpoints): 50%
- Cumulative % at MIC (all n=100, MIC 0.5 µg/mL): 36%
- No. of isolates at MIC (all n=100, MIC 0.5 µg/mL): 1
- Cumulative % at MIC (all n=100, MIC 1 µg/mL): 37%
- No. of isolates at MIC (all n=100, MIC 1 µg/mL): 1
- Cumulative % at MIC (all n=100, MIC 2 µg/mL): 39%
- No. of isolates at MIC (all n=100, MIC 2 µg/mL): 2
- Cumulative % at MIC (all n=100, MIC […] µg/mL): 50%
- No. of isolates at MIC (all n=100, MIC […] µg/mL): 3
- Cumulative % at MIC (all n=100, MIC >128 µg/mL): 100%
- No. of isolates at MIC (all n=100, MIC >128 µg/mL): 50
- Cumulative % at MIC (all n=100, MIC ≤[…]): 35%
- No. of isolates at MIC (all n=100, MIC ≤[…]): 35
- MAX (maximum MIC) (non-MDR n = 50): 16 µg/mL
- MIC50 (non-MDR n = 50): ≤0.25 µg/mL
- MIC90 (non-MDR n = 50): 4 µg/mL
- MIN (minimum MIC) (non-MDR n = 50): ≤0.25 µg/mL
- Percentage I (non-MDR n = 50): 0%
- Percentage R (non-MDR n = 50): 0%
- Percentage S (non-MDR n = 50): 100%
- Cumulative % at MIC (non-MDR n=50, MIC 0.5 µg/mL): 72%
- No. of isolates at MIC (non-MDR n=50, MIC 0.5 µg/mL): 1
- Cumulative % at MIC (non-MDR n=50, MIC 1 µg/mL): 74%
- No. of isolates at MIC (non-MDR n=50, MIC 1 µg/mL): 1
- Cumulative % at MIC (non-MDR n=50, MIC 2 µg/mL): 78%
- No. of isolates at MIC (non-MDR n=50, MIC 2 µg/mL): 2
- Cumulative % at MIC (non-MDR n=50, MIC […] µg/mL): 100%
- No. of isolates at MIC (non-MDR n=50, MIC […] µg/mL): 3
- Cumulative % at MIC (non-MDR n=50, MIC ≤[…]): 70%
- No. of isolates at MIC (non-MDR n=50, MIC ≤[…]): 35
